Results taken from PubChem BioAssay AID1902 (Broad Institute, 2009).
The source made the active and inactive calls.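 The calls were made as follows: active = EC50 no more than a set limit of log units above the highest dose; inactive = the rest.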

Target: S. pyogenes SKKanGAS, kanamycin survival, BacTiterGlo, 6 h
Assay: SKKanGAS survival reduction under kanamycin, dose response, streptokinase promoter inhibitor project, SKKanGAS strain, luminescence, dose confirmation (AID 1902);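 also: lower survival reflects blocked streptokinase promoter driving kanamycin resistance gene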

Structure (SMILES)	EC50
Cc1cc(C(=O)N/N=C/c2ccc([N+](=O)[O-])s2)n[nH]1	2.39 µM
CCn1cnc2sc(C(=O)Oc3cccc(C)c3)c(C)c2c1=O	4.08 µM
S=c1[nH]nc(-c2cccs2)n1/N=C/c1cn(-c2ccccc2)nc1-c1ccccc1	7.78 µM
COc1ccccc1N=Nc1ccc(O)c2ncccc12	0.665 µM
C/C(=N/Nc1nc(-c2ccccc2F)nc2ccccc12)c1ccccc1O	8.27 µM
CCC1(C)Cc2ccccc2-c2c1c(=O)n(Cc1ccccc1)c1nnnn21 (stereo not drawn)	1.51 µM
Cc1cc(NC(c2ccc(Cl)cc2)c2ccc3cccnc3c2O)no1 (stereo not drawn)	0.602 µM
Cc1cc(/C=C2\SC(=S)N(C)C2=O)c(C)n1-c1ccc(O)cc1	2.09 µM
N#Cc1c(-c2ccccc2)nc(SCc2ccc(Cl)cc2)[nH]c1=O	6.47 µM
COc1ccccc1C(=O)NNC(=S)NC(=O)c1cc(OC)c(OC)c(OC)c1	0.98 µM
CC(=O)Oc1ccc(-c2nc(-c3cccnc3)no2)cc1	4.93 µM
O=S(=O)(Nc1c(S(=O)(=O)c2ccccc2)c2nc3ccccc3nc2n1C1CCCCC1)c1ccccc1	2.71 µM
O=C(N/N=C/c1c(O)ccc2ccccc12)c1ccc(Br)o1	2.3 µM
CCC1CCCCN1S(=O)(=O)c1ccc(NC(=O)c2nc(S(C)(=O)=O)ncc2Cl)cc1 (stereo not drawn)	9.42 µM
CC1Cc2ccccc2N1C(=S)NC(=O)c1ccc(Cl)cc1Cl (stereo not drawn)	4.26 µM
COc1ccc(-c2c(C(F)(F)F)[nH]n3c(=O)cc(-c4ccccc4)nc23)cc1	4.73 µM
CCCCCCn1c(=O)c(C(=O)N/N=C/c2cccc(F)c2)c(O)c2ccccc21	2.11 µM
Cc1ccc(C)c(CSC2=NCCN2S(=O)(=O)c2ccccc2)c1	15.7 µM
CN(/N=C/c1cc(Br)cc(Br)c1O)c1cccc(C(F)(F)F)n1	0.544 µM
Cc1cccc(Nc2nnc(-c3ccc(N4CCOCC4)c([N+](=O)[O-])c3)c3ccccc23)c1	4.52 µM
CC/C(=C\C1CCCCC1)C(NP(=O)(c1ccccc1)c1ccccc1)c1ccccc1 (stereo not drawn)	1.14 µM
O=C(Nc1cccc(-c2csc(Nc3ccc(Cl)cc3)n2)c1)c1ccccc1	4.45 µM
CCN(CC)c1ccc(-n2cc3c(=O)n(C)c(=O)n(C)c3c2)cc1	3.43 µM
FC(F)(F)c1cc(-c2ccccc2)nc(N2CCCCCC2)n1	3.93 µM
CCOC(=O)c1c(C)[nH]c(C(=O)N/N=C/c2cc([N+](=O)[O-])ccc2O)c1C	4.39 µM
COc1ccc(C(=O)NCC(=O)OCCCOC(=O)CNC(=O)c2ccc(OC)c(OC)c2)cc1OC	> 15 µM (inactive)

Structure (SMILES)	EC50
COc1cccc(Nc2c3c(nc4c(-c5ccccc5)c(C)nn24)CCC3)c1	1.8 µM
Cc1ccc(Cc2cnc(N3C(=N)SC(c4ccccc4)C3=O)s2)cc1 (stereo not drawn)	0.105 µM
CCc1ccc(-c2cc(C)no2)cc1S(=O)(=O)Nc1cccc(CN2CCCC2)c1	> 15 µM (inactive)
Cc1cccc(-c2oc3ccccc3c2-c2ccc3c(c2)OCO3)c1	3.65 µM
CCC[C@@H]1C[C@@]1(CCC)[C@@H](NP(=O)(c1ccccc1)c1ccccc1)c1ccc(C(=O)OC)cc1	2.14 µM
COc1ccc2c(C)nc(Nc3nc(-c4ccccc4)cc(=O)[nH]3)nc2c1	2.75 µM
O=C(Nc1ncc(Cc2ccccc2)s1)c1cccs1	1.9 µM
c1ccc2c(c1)ncn2CCCOc1ccc2c(c1)CCC2	7.49 µM
Fc1ccc(Br)cc1C1C=C(c2ccc(Br)s2)Nc2ncnn21 (stereo not drawn)	6.39 µM
COc1ccc(C(=O)CC(=O)C(=O)Nc2ccccc2C(F)(F)F)cc1	2.05 µM
COc1ccccc1Sc1nc(-c2ccccn2)ncc1OC	14.7 µM
Cc1ccccc1-n1cnc2cc(NCc3cccs3)ccc21	4.69 µM
CC(C)S(=O)(=O)c1csc(NC(=O)Nc2cc(Cl)ccc2Cl)c1Cl	1.65 µM
Cc1ccc(C(=O)NNC(=S)NC(=O)c2ccc(Cl)cc2)cc1	0.074 µM
Cc1nc(N)sc1-c1csc(N(C)c2ccc(O)cc2)n1	3.57 µM
C=CCn1c(NC(=O)c2ccc(C)cc2)nc2ccccc21	9.75 µM
CC(C)(C)c1cc(C(=O)NNc2cc(C(F)(F)F)ccc2Cl)n(Cc2ccccc2)n1	4.92 µM
Cc1nn(Cc2ccc(Cl)cc2Cl)c(C)c1NC(=O)NC12CC3CC(CC(C3)C1)C2	14.2 µM
CCCCCC(=O)Cc1cc(O)cc2c1C(=O)Oc1cc(O)c(C(=O)O)c(CCCCC)c1O2	6.67 µM
COc1ccc(NC(=O)c2nc[nH]c2C(=O)N[C@@H](CC(C)C)C(=O)OC(C)(C)C)cc1	3.28 µM
O=c1cc(-c2ccccc2Cl)oc2c(NS(=O)(=O)c3cc(Cl)cc(Cl)c3O)ccc(O)c12	0.552 µM
CCOc1ccc(N=Nc2ccc(O)c3ncccc23)cc1	0.186 µM
Cc1ccc(/C=C/C(=O)c2ccccc(=O)c2O)cc1C	4.04 µM
CCC(=O)Nc1nc2ccccc2n1Cc1ccccc1C	1.62 µM
CN(C)/C=C(\C=N\OCc1ccc(Cl)cc1Cl)C(=O)Nc1ccc(Cl)c(Cl)c1	0.803 µM
OC(CN=c1sc2ccccc2n1CC(O)COc1ccccc1)COc1ccccc1 (stereo not drawn)	6.28 µM

Structure (SMILES)	EC50
N#C/C(=C(/O)c1cc2ccccc2o1)c1nc2ccccc2s1	9.58 µM
CC(=O)c1sc(N/N=C\c2c(O)ccc3ccccc23)nc1C	4.08 µM
CCN1CCN(Cc2ccc(NC(=O)c3ccc(C)c(/C=C/c4cnc(Nc5cc(N6CCNCC6)nc(C)n5)cn4)c3)cc2C(F)(F)F)CC1	8.41 µM
CCOc1ccc2c(c1)C(=NNC(=O)c1ccncc1)c1cc(OCC)ccc1-2	1.57 µM
CCOC(=O)c1sc(Nc2nc3ccc(OC)cc3s2)cc1C	2.95 µM
Cc1ccc(C(=O)/C=C/C(=O)c2ccc(C)cc2)cc1	3.61 µM
CCN(CC)CCN(C(=O)C1=COCCO1)c1nc2cc(C)cc(C)c2s1	> 15 µM (inactive)
c1ccc(-n2c3ccccc3c3ccccc32)cc1	4.4 µM
COc1cccc(/C=C/C(=C2/C(=O)N(c3ccccc3)N=C2C)c2ccc(Br)cc2)c1OC	> 15 µM (inactive)
Cc1cc(C)n(-c2nc(Nc3ccccc3C)nc(-n3nc(C)cc3C)n2)n1	5.32 µM
Cc1sc2nc(-c3ccccn3)[nH]c(=O)c2c1-c1ccccc1	1.28 µM
CNc1ccc2oc(C[C@H]3O[C@@]4(CC[C@H]3C)O[C@H]([C@H](C)C(=O)c3ccc[nH]3)[C@H](C)C[C@H]4C)nc2c1C(=O)O	< 0.06 µM
Cc1ccc(NC(=S)NC(=O)c2ccc(-c3ccc(Cl)cc3)o2)c(O)c1	0.531 µM
COc1ccc(N2CC(C(=O)Nc3nnc(SCc4cccnc4)s3)CC2=O)cc1 (stereo not drawn)	> 15 µM (inactive)
Cc1ccc(OP(=O)(Nc2cccc(C)c2)Oc2ccc(C)cc2)cc1	9.09 µM
Nc1sc(-c2ccccc2)cc1C(=O)N/N=C/c1ccc(Cl)cc1	5.73 µM
Cc1ccc(C)c(NC(=S)N/N=C2/CCCCc3ccccc32)c1	0.643 µM
CCc1ccc2c(c1)C1(NN=C(c3ccccc3)S1)C(=O)N2 (stereo not drawn)	0.245 µM
COc1ccc(C(=O)CSc2nc(-c3ccccn3)nc(C)c2Cl)cc1	1.4 µM
O=c1[nH]c2ccc(Cl)cc2c(-c2ccccc2)c1N1CCN(c2ccccn2)CC1	2.83 µM
CCCSc1nsc(NC(=O)Nc2ccc(F)cc2F)n1	5.66 µM
CC1(C)CN=C(Nc2nc3ccccc3s2)S1	6.75 µM
Cc1cccc(C(=O)NC(=S)NNC(=O)c2ccc(Cl)cc2)c1	0.187 µM
Nc1[nH]n2c(=O)cc(-c3ccccc3)nc2c1N=Nc1ccccc1	1.83 µM
COc1cc(C(=O)N/N=C/c2ccc(OC(=O)c3ccccc3Cl)c(OC)c2)ccc1O	5.64 µM
O=C(CSc1nc(-c2ccc(Cl)cc2)[nH]c(=O)n1)Nc1cccc(Cl)c1	2.35 µM
